Marks after values point to notes of the source that are not given here.
What was measured:
Type in all cases: in vivo, human
[1] = tested on: Patients diagnosed with Alzheimer's Disease; assay: ADAS-cog/11 in 5-month slow-titration trial
Excerpt: (§1) Subjects in the Placebo group received 21 weeks (5 months) of placebo medication.
All patients were monitored throughout the study, with follow-up and cognitive evaluation at four weeks, three months and five months after the start of the study.
The ADAS consists of two parts—a cognitive subscale and a behavioral subscale. The behavioral subscale was not be used in this study. The cognitive subscale, the ADAS—cog-11, consisted of Word Recall and Word Recognition memory tests, Object and Finger Naming, Commands, Constructional Praxis, Ideational Praxis, Orientation, Remembering Test Instructions, Spoken language Ability, Comprehension of Spoken language and Word Finding Difficulty was the primary variable in this study.
To reduce variability due to circadian fluctuations in cognitive status the ADAS was done always at the same time of the day, preferably before noon. Only a trained ADAS rater performed the test. Ideally the ADAS rater was not involved in the treatment of the subject and should have no access to AE (adverse event) reporting.
The ADAS was performed at visits 1, 2, 3, 4 and 5 (screening, baseline, week 4, week 13 and month 5 or upon early discontinuation of trial medication intake). For word recall and word recognition two parallel wordlists, list A and list B were employed. List A was used at visits 1 and 3, List B at visits 2, 4, and 5 or upon early discontinuation of trial medication intake. For practical reasons the words for word recognition was presented only once. The total score of the 11 cognitive items on the original ADAS cognitive subscale (ADAS-cog/11, Range: 0-70) was recorded.
For continuous data, a two-way analysis of variance (ANOVA) model with treatment and investigator as factors were used to compare the treatment groups for the change from baseline data. The interaction between treatment and investigator was examined. The impact of the baseline score on change from baseline was evaluated. […] If the parametric methods were deemed inappropriate (normality assumption violated), nonparametric methods such as two-way ANOVA on ranked data, Van Elteren test, controlling for investigator, was used. Following ANOVA, Fisher's LSD procedure was used for pairwise comparisons between each galanthamine group and the placebo group. A linear contrast on the main effect for treatment was used to test the dose response relationship.

[2] = tested on: Patients diagnosed with Alzheimer's Disease; assay: CIBIC-plus in 5-month slow-titration trial
Method: as §1
The CIBIC-plus score was a second primary variable. An independent, experienced and properly trained clinician provided a global impression of the subject's deterioration or improvement over the course of the trial, based on separate interviews with the subject and caregivers. If helpful, the CIBIC rater audiotaped or videotaped the baseline interview for future reference.
The CIBIC-plus was performed at visit 2, 3, 4, and 5 (baseline, week 4, week 13, and month 5 or upon early discontinuation of trial medication intake). Only a trained CIBIC rater performed the test.
For ordinal categorical variables such as the CIBIC-plus score, the Van Elteren test controlling for investigator was used for the between group comparison. For the nominal data (e.g., events rates), the Cochran-Mantel-Haenszel test for general association controlling for investigator was used. A linear contrast on the proportion of patients that stay the same or improve was used to test for increasing response with increasing dose.

patients = assay: Side effects and dropout in earlier studies with shorter titration; settings: for Abdominal Pain: % / Abdominal Pain: number / Diarrhea: % / Diarrhea: number / Dyspepsia: % / Dyspepsia: number / Gastro-intestinal System Disorders, Adverse events: % / Gastro-intestinal System Disorders, Adverse events: number / Nausea: % / Nausea: number / Vomiting: % / Vomiting: number: shorter titration
Excerpt: In contrast with earlier studies with a shorter titration of the drug the incidence of side effects, particularly gastro-intestinal system disorders, were […]. A example of this is shown below in Table 11.

COc1ccc2c3c1O[C@H]1C[C@@H](O)C=C[C@@]31CCN(C)C2 [GAL, galantamine]
Responders, ADAS-cog/11 change ≦ 0 points at Month 5: % ([1]; 8 mg/day): 46.5%
Responders, ADAS-cog/11 change ≦ 0 points at Month 5: n ([1]; 8 mg/day): 47
Responders, ADAS-cog/11 change ≦ −4 points at Month 5: % ([1]; 8 mg/day): 25.7%
Responders, ADAS-cog/11 change ≦ −4 points at Month 5: n ([1]; 8 mg/day): 26
Responders, ADAS-cog/11 change ≦ −7 points at Month 5: % ([1]; 8 mg/day): 13.9%
Responders, ADAS-cog/11 change ≦ −7 points at Month 5: n ([1]; 8 mg/day): 14
Responders, ADAS-cog/11 change ≦ −10 points at Month 5: % ([1]; 8 mg/day): 5.9%
Responders, ADAS-cog/11 change ≦ −10 points at Month 5: n ([1]; 8 mg/day): 6
Responders, ADAS-cog/11 change ≦ 0 points at Month 5: % ([1]; 16 mg/day): 65.4%
Responders, ADAS-cog/11 change ≦ 0 points at Month 5: n ([1]; 16 mg/day): 136
Responders, ADAS-cog/11 change ≦ −4 points at Month 5: % ([1]; 16 mg/day): 35.6%
Responders, ADAS-cog/11 change ≦ −4 points at Month 5: n ([1]; 16 mg/day): 74
Responders, ADAS-cog/11 change ≦ −7 points at Month 5: % ([1]; 16 mg/day): 15.9%
Responders, ADAS-cog/11 change ≦ −7 points at Month 5: n ([1]; 16 mg/day): 33
Responders, ADAS-cog/11 change ≦ −10 points at Month 5: % ([1]; 16 mg/day): 7.2%
Responders, ADAS-cog/11 change ≦ −10 points at Month 5: n ([1]; 16 mg/day): 15
Responders, ADAS-cog/11 change ≦ 0 points at Month 5: % ([1]; 24 mg/day): 64.9%
Responders, ADAS-cog/11 change ≦ 0 points at Month 5: n ([1]; 24 mg/day): 137
Responders, ADAS-cog/11 change ≦ −4 points at Month 5: % ([1]; 24 mg/day): 37.0%
Responders, ADAS-cog/11 change ≦ −4 points at Month 5: n ([1]; 24 mg/day): 78
Responders, ADAS-cog/11 change ≦ −7 points at Month 5: % ([1]; 24 mg/day): 22.3%
Responders, ADAS-cog/11 change ≦ −7 points at Month 5: n ([1]; 24 mg/day): 47
Responders, ADAS-cog/11 change ≦ −10 points at Month 5: % ([1]; 24 mg/day): 10.4%
Responders, ADAS-cog/11 change ≦ −10 points at Month 5: n ([1]; 24 mg/day): 22
Change from baseline in ADAS-cog/11 at Month 5, Mean (SE) ([1]; LOCF, 8 mg/day, no titration): 0.4 (0.52)▪
Change from baseline in ADAS-cog/11 at Month 5, Mean (SE) ([1]; LOCF, 16 mg/day after 4-week titration): −1.4 (0.35)***^♭
Change from baseline in ADAS-cog/11 at Month 5, Mean (SE) ([1]; LOCF, 24 mg/day after 8-week titration): −1.4 (0.39)***^♭
Change from baseline in ADAS-cog/11 at Month 5, Mean (SE) ([1]; observed case, 8 mg/day, no titration): 0.1 (0.58)*
Change from baseline in ADAS-cog/11 at Month 5, Mean (SE) ([1]; observed case, 16 mg/day after 4-week titration): −1.5 (0.40)***^†
Change from baseline in ADAS-cog/11 at Month 5, Mean (SE) ([1]; observed case, 24 mg/day after 8-week titration): −1.8 (0.44)***^†
CIBIC-plus at Month 5, Improved/no change: % ([2]; LOCF, 8 mg/day): 53%
CIBIC-plus at Month 5, Improved/no change: n ([2]; LOCF, 8 mg/day): 68
CIBIC-plus at Month 5, Improved/no change: % ([2]; LOCF, 16 mg/day): 66%
CIBIC-plus at Month 5, Improved/no change: n ([2]; LOCF, 16 mg/day): 169
CIBIC-plus at Month 5, Improved/no change: % ([2]; LOCF, 24 mg/day): 64%
CIBIC-plus at Month 5, Improved/no change: n ([2]; LOCF, 24 mg/day): 162
CIBIC-plus at Month 5, Improved/no change: % ([2]; observed case, 8 mg/day): 51%
CIBIC-plus at Month 5, Improved/no change: n ([2]; observed case, 8 mg/day): 54
CIBIC-plus at Month 5, Improved/no change: % ([2]; observed case, 16 mg/day): 68%
CIBIC-plus at Month 5, Improved/no change: n ([2]; observed case, 16 mg/day): 143
CIBIC-plus at Month 5, Improved/no change: % ([2]; observed case, 24 mg/day): 64%
CIBIC-plus at Month 5, Improved/no change: n ([2]; observed case, 24 mg/day): 136
Abdominal Pain: % (patients; 18 mg): 2.3%
Abdominal Pain: number (patients; 18 mg): 2
Diarrhea: % (patients; 18 mg): 2.3%
Diarrhea: number (patients; 18 mg): 2
Dyspepsia: % (patients; 18 mg): 5.7%
Dyspepsia: number (patients; 18 mg): 5
Gastro-intestinal System Disorders, Adverse events: % (patients; 18 mg): 31.8%
Gastro-intestinal System Disorders, Adverse events: number (patients; 18 mg): 28
Nausea: % (patients; 18 mg): 17.0%
Nausea: number (patients; 18 mg): 15
Vomiting: % (patients; 18 mg): 17.0%
Vomiting: number (patients; 18 mg): 15
Abdominal Pain: % (patients; 24 mg): 7.4%
Abdominal Pain: number (patients; 24 mg): 36
Diarrhea: % (patients; 24 mg): 9.6%
Diarrhea: number (patients; 24 mg): 47
Dyspepsia: % (patients; 24 mg): 4.3%
Dyspepsia: number (patients; 24 mg): 21
Gastro-intestinal System Disorders, Adverse events: % (patients; 24 mg): 49.0%
Gastro-intestinal System Disorders, Adverse events: number (patients; 24 mg): 239
Nausea: % (patients; 24 mg): 35.2%
Nausea: number (patients; 24 mg): 172
Vomiting: % (patients; 24 mg): 19.1%
Vomiting: number (patients; 24 mg): 93
Abdominal Pain: % (patients; 32 mg): 8.4%
Abdominal Pain: number (patients; 32 mg): 59
Diarrhea: % (patients; 32 mg): 12.9%
Diarrhea: number (patients; 32 mg): 91
Dyspepsia: % (patients; 32 mg): 4.5%
Dyspepsia: number (patients; 32 mg): 32
Gastro-intestinal System Disorders, Adverse events: % (patients; 32 mg): 55.8%
Gastro-intestinal System Disorders, Adverse events: number (patients; 32 mg): 393
Nausea: % (patients; 32 mg): 37.6%
Nausea: number (patients; 32 mg): 265
Vomiting: % (patients; 32 mg): 18.6%
Vomiting: number (patients; 32 mg): 131
dropout rate due to cholinergic side effects (patients; 36 mg daily in three doses, two week titration): 50%
Abdominal Pain: % (patients; 36 mg): 1.9%
Abdominal Pain: number (patients; 36 mg): 1
Diarrhea: % (patients; 36 mg): 3.7%
Diarrhea: number (patients; 36 mg): 2
Dyspepsia: % (patients; 36 mg): 0 (0%)
Dyspepsia: number (patients; 36 mg): 0 (0%)
Gastro-intestinal System Disorders, Adverse events: % (patients; 36 mg): 50.0%
Gastro-intestinal System Disorders, Adverse events: number (patients; 36 mg): 27
Nausea: % (patients; 36 mg): 37.0%
Nausea: number (patients; 36 mg): 20
Vomiting: % (patients; 36 mg): 16.7%
Vomiting: number (patients; 36 mg): 9
Abdominal Pain: % (patients; flexable dose): 1.9%
Abdominal Pain: number (patients; flexable dose): 18
Diarrhea: % (patients; flexable dose): 14.6%
Diarrhea: number (patients; flexable dose): 38
Dyspepsia: % (patients; flexable dose): 3.4%
Dyspepsia: number (patients; flexable dose): 9
Gastro-intestinal System Disorders, Adverse events: % (patients; flexable dose): 51.0%
Gastro-intestinal System Disorders, Adverse events: number (patients; flexable dose): 133
Nausea: % (patients; flexable dose): 32.2%
Nausea: number (patients; flexable dose): 84
Vomiting: % (patients; flexable dose): 14.6%
Vomiting: number (patients; flexable dose): 38

From patent publication US20030139391A1 (priority 2000, published 2003)
